In ChEMBL document CHEMBL5352493, “Dual inhibitors of ASK1 and PDK1 kinases: Design, synthesis, molecular docking and mechanism studies of N-benzyl pyridine-2-one containing derivatives as anti-fibrotic agents” (Eur J Med Chem, 2023):

Key:
[1] = molecular target: T1, Mitogen-activated protein kinase kinase kinase 5 (Homo sapiens, UniProt Q99683); assay: Inhibition of ASK1 (unknown origin)
T1 sequence (Q99683 whole entry): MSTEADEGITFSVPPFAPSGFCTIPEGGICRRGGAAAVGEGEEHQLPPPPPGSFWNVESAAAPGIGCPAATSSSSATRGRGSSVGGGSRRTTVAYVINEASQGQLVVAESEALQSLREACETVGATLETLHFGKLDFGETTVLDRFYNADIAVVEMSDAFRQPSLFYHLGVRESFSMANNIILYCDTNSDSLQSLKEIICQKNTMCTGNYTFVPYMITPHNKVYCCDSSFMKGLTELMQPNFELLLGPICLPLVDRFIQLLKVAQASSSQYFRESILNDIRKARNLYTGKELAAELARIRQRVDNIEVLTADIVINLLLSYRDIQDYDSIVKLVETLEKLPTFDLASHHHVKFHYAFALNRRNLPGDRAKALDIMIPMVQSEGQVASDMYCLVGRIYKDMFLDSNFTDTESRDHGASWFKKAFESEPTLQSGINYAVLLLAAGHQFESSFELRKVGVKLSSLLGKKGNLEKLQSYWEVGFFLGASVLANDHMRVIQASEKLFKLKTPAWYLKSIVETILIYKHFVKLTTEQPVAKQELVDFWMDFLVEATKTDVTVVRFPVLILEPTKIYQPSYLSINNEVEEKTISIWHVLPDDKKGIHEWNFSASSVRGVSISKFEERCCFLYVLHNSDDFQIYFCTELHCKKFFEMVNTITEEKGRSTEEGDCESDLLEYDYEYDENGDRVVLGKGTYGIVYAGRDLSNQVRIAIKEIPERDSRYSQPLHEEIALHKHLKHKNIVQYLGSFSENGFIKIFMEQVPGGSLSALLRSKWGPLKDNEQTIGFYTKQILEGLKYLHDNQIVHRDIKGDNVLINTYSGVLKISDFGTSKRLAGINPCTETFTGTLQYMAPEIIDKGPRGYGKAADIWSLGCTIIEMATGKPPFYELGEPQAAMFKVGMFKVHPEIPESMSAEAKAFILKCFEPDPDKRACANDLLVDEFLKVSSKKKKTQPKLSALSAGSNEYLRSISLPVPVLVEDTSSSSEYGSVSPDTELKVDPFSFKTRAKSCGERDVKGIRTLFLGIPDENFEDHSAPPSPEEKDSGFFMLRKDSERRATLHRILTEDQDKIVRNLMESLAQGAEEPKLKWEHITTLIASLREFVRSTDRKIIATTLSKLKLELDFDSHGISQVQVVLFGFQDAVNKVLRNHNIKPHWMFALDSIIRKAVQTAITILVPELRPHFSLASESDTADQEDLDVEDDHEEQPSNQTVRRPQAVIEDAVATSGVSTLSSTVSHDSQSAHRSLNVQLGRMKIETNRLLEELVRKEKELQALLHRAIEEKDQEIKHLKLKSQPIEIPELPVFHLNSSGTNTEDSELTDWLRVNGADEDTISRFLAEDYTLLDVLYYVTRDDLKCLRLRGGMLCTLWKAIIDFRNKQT

[2] = Antiproliferative against rat NRK-49F cells measured after 48 hrs by CCK8 assay; format: toxicity, cell-based
[3] = Antiproliferative against HLF1 cells measured after 48 hrs by CCK8 assay; format: toxicity, cell-based; settings: human, HFL1 cells (description prints HLF1)
[4] = Antiproliferative against rat HSC-T6 cells measured after 48 hrs by CCK8 assay; format: toxicity, cell-based
[5] = molecular target: T1, Mitogen-activated protein kinase kinase kinase 5; assay: Inhibition of human recombinant ASK1 using MBP as substrate preincubated for 1 hr followed by reagent addition incubated for 40 mins by ATP-Glo kinase assay
[6] = Antiproliferative against human BEAS-2B cells measured after 48 hrs by CCK8 assay; format: toxicity, cell-based

Structure (SMILES)	IC50 [1]	IC50 [5]	IC50 at 48 h [2]	IC50 at 48 h [3]	IC50 at 48 h [4]	IC50 at 48 h [6]
Cc1cc(F)c(C(=O)Nc2cccc(-c3nncn3C(C)C)c2)cc1-n1cnc(C2CC2)c1	0.0129 µM	–	–	–	–	–
O=C(Nc1cccc(-c2nncn2C2CC2)n1)c1cc(-c2cnc(Cl)nc2)cn(Cc2ccccc2F)c1=O	–	2.37 µM	> 80 µM	29.2 µM	> 80 µM	–
CC(C)n1cnnc1-c1cccc(NC(=O)c2cc3c(C(F)(F)F)nn(C)c3[nH]c2=O)n1	–	2.66 µM	> 80 µM	> 80 µM	> 80 µM	–
Cn1nc(C(F)(F)F)c2cc(C(=O)Nc3cccc(-c4nncn4C4CC4)n3)c(=O)[nH]c21	–	0.489 µM	> 80 µM	> 80 µM	> 80 µM	–
Cn1nc(C(F)(F)F)c2cc(C(=O)Nc3cccc(-c4nncn4C4CCCC4)n3)c(=O)[nH]c21	–	2.18 µM	> 80 µM	> 80 µM	> 80 µM	–
Cn1nc(C(F)(F)F)c2cc(C(=O)Nc3cccc(-c4nncn4C4CCCC4)c3)c(=O)[nH]c21	–	> 5 µM	> 80 µM	> 80 µM	> 80 µM	–
Cn1nc(C(F)(F)F)c2cc(C(=O)Nc3cccc(-c4nncn4C4CCCCC4)c3)c(=O)[nH]c21	–	> 5 µM	> 80 µM	> 80 µM	> 80 µM	–
O=C(N[C@@H](COc1ccc2[nH]c(=O)[nH]c2c1)c1ccccc1)c1cccn(Cc2ccc(F)c(F)c2)c1=O	–	> 5 µM	40.4 µM	64.8 µM	36.2 µM	96.4 µM
O=C(Nc1cccc(-c2nncn2C2CC2)n1)c1cc(-c2cnn(C(F)F)c2)cn(Cc2ccccc2F)c1=O	–	0.291 µM	58.5 µM	> 80 µM	> 80 µM	–
O=C(Nc1cccc(-c2nncn2C2CC2)n1)c1cc(-c2cccnc2)cn(Cc2ccccc2F)c1=O	–	> 5 µM	> 80 µM	64.2 µM	> 80 µM	–
CC(C)n1cnnc1-c1cccc(NC(=O)c2cc3c(C(F)(F)F)nn(C)c3nc2OCc2ccccc2F)n1	–	> 5 µM	> 80 µM	17.9 µM	> 80 µM	–
CC(C)n1cnnc1-c1cccc(NC(=O)c2cc3c(C(F)(F)F)nn(C)c3[nH]c2=O)c1	–	> 5 µM	> 80 µM	> 80 µM	> 80 µM	–
CCCCn1cnnc1-c1cccc(NC(=O)c2cc3c(C(F)(F)F)nn(C)c3[nH]c2=O)n1	–	0.978 µM	> 80 µM	> 80 µM	> 80 µM	–
CC(C)n1cnnc1-c1cccc(NC(=O)c2cc3c(C(F)(F)F)nn(C)c3n(C)c2=O)c1	–	> 5 µM	56.1 µM	> 80 µM	> 80 µM	–
O=C(Nc1cccc(-c2nncn2C2CC2)c1)c1cc(-n2cnc(C3CC3)c2)ccn1	–	–	34.4 µM	67.9 µM	33.4 µM	90.2 µM
O=C(Nc1cccc(-c2nncn2C2CC2)n1)c1cc(Br)cn(Cc2ccccc2F)c1=O	–	> 5 µM	> 80 µM	> 80 µM	> 80 µM	–

Second part, led by results:

IC50 [1]	IC50 [5]	Structure (SMILES)	IC50 at 48 h [2]	IC50 at 48 h [3]	IC50 at 48 h [4]	IC50 at 48 h [6]
–	> 5 µM	O=C(Nc1cccc(-c2nncn2C2CC2)n1)c1cc(-c2ccc3[nH]ccc3c2)cn(Cc2ccccc2F)c1=O	5.75 µM	18.7 µM	> 80 µM	–
–	> 5 µM	O=C(Nc1cccc(-c2nncn2C2CC2)n1)c1cc(-c2cccc3[nH]ccc23)cn(Cc2ccccc2F)c1=O	47 µM	> 80 µM	> 80 µM	–
–	> 5 µM	O=C(Nc1cccc(-c2nncn2C2CC2)n1)c1cc(-c2ccc3scnc3c2)cn(Cc2ccccc2F)c1=O	34.2 µM	68.3 µM	> 80 µM	–
–	0.289 µM	O=C(Nc1cccc(-c2nncn2C2CC2)n1)c1cc(-c2cnn(C3CCC3)c2)cn(Cc2ccccc2F)c1=O	> 80 µM	10.7 µM	> 80 µM	–
–	> 5 µM	Cn1nc(C(F)(F)F)c2cc(C(=O)Nc3cccc(-c4nncn4C4CCCCC4)n3)c(=O)[nH]c21	> 80 µM	> 80 µM	> 80 µM	–
–	1.02 µM	Cn1nc(C(F)(F)F)c2cc(C(=O)Nc3cccc(-c4nncn4C4CCCC4)n3)c(OCc3ccccc3F)nc21	11.4 µM	7.99 µM	14.8 µM	–
–	1.57 µM	CCn1c(=O)c(C(=O)Nc2cccc(-c3nncn3C3CCCCC3)n2)cc2c(C(F)(F)F)nn(C)c21	> 80 µM	> 80 µM	> 80 µM	–
–	1.29 µM	Cn1nc(C(F)(F)F)c2cc(C(=O)Nc3cccc(-c4nncn4C4CC4)n3)c(OCc3ccccc3F)nc21	55.2 µM	62.5 µM	> 80 µM	–
